Source: patent publication US12319652B2, “Salts and solid forms of (R)-1-(5-methoxy-1H-indol-1-yl)-N,N-dimethylpropan-2-amine” (priority 2021, dated 2025)

How the values were obtained:
[1] = Dynamic vapor sorption (DVS); type: physicochemical; details: for DVS isotherm type / hygroscopicity: 0 to 90 to 0% RH
Procedure: There are two main methods to use, one is by time where the equilibration is given by a fixed time, i.e., 1 hour per step and is appropriate for an unknown phase. The second, is by mass per time unit (dm/dt) of 0.002%/min; that is when the difference in weight is less than 0.002%, the instrument moves onto the next step. For unknown hygroscopicity, the method by time is indicated because it gives an idea of water affinity without wasting much time. Ideally the analyses are repeated using the mass equilibration method to confirm. By experience for hygroscopic samples, the analysis can continue for days. For non-hygroscopic samples the difference between the two methods may not be significant.
Consequently, amorphous batch 1 was analyzed by the fixed time method and once compound 1 fumarate crystalline polymorphic Form A was generated the analyses was repeated as mass per unit time equilibrated @dm/dt ([…]) and is given below (refer to FIG. 12).
(§1) The moisture sorption properties of the feed API were analysed by DVS Intrinsic instrument (Surface Measurement System). Approximately 20 to 50 mg of API was weighed onto an aluminium pan and loaded into the instrument equilibrated at 25° C. The sample was equilibrated under a dry atmosphere (0% relative humidity) for 60 minutes, before increasing the humidity from 0% to 30% at 5%4 step increment and from 30% to 90% at 10% step increment. A desorption cycle was also applied from 90% to 30% (10% step decrement) and from 30% to 0% (5% step decrement). A rate of change in mass per time unit (dm/dt) of 0.002%/min was set as the equilibrium parameter. Kinetic and isotherm graphs were calculated.
Specimens were equilibrated at 0% RH for 60 min, prior to DVS analyses (stepped increment % RH up to 90% RH and stepped decrement % RH down to 0% RH.
as §1, with “5%” for “5%4”

[2] = Solubility determinations in SIF buffers (FaSSIF, FeSSIF, FaSSGF); type: physicochemical; details: FaSSIF, FeSSIF and FaSSGF, 37° C., 24 h, concentration tested 30 mg/ml
Procedure: At this stage ca. 1 g of each front-runner salt form was prepared. Salt forms that offered significant solubility and stability advantages over the non-ionized API were prioritized. […] Scale Up
The solubility of the salts below was determined in FaSSIF, FeSSIF and FaSSGF by reference to the calibration curve of amorphous compound 1.
Separate portions of compound 1 were weighed out into aluminum boats and were charged to the relevant volumetric flasks. Solutions were made to volume with 1 to 1 (v/v) acetonitrile/purified water to give calibrants of known API concentrations and analyzed by HPLC, suitable to determine the concentration of compound 1 free base in the SIF buffer solubility study.
Each sample (150 mg) was suspended in the relevant SIF buffer (5.0 ml), to give a concentration of 30 mg/ml and maintain at 37° C. for 24 h. The pH was adjusted using 1 M HCl or 1 M NaOH, to ensure that the suspension remains in range.
Sample (1 ml) of the well-stirred representative suspensions was obtained at 1 h, 3 h, 6 h and 24 h and the pH was recorded. The pH of the bulk suspension was re-adjusted when necessary. The obtained sample from each vial was centrifuged, and the supernatant was analysed by HPLC (note, the analyte was diluted, when outside of the calibration range); XRPD analysis was performed on the wet sample pellet for evidence of form change, as well as on the oven-dried pellet (undervacuum at 40° C.).

[3] = type: physicochemical; details: 10 days; listed as compound 1·HCl (Form A)
Procedure: Equilibrium Humidity Evaluation (40° C./75% RH for 10 Days)
100 mg portions of compound 1 salts (for inputs see table below) were placed in the relevant open vials. The powders were finely divided and distributed evenly over the base of the vial, such that equal material coverage across the panel was observed. These samples were then maintained 40°C. under 75% RH. The samples were sub-sampled at intervals of 5 and 10 days and analysed by ^1H NMR, HPLC, XRPD, DSC, TGA and PLM, for evidence of phase change or chemical degradation (FIG. 269-297).

[4] = Equilibrium humidity evaluation of crystalline compound 1 HCl Form A (95% RH/20° C.); type: physicochemical; details: 20° C./95% RH, open-capped and double bagged vials, 10-day period
Procedure: The stability of crystalline compound 1 HCl Form A was evaluated. Absorbent compound 1·Cl (Form A), (100 mg) was maintained, open-capped at 95% RH/20° C. and monitored at t=0, t=5 d and t=10 d, time points.
While absorbent Compound 1 HCl Form A), (100 mg) was placed open-capped inside double, cable-tied, electrostatic polythene bags (to mimic a typical packaging configuration) and placed inside the same humidity chamber at 95% RH at 20° C. and monitored at t=0, t=5 d and t=10 d time points. Stability of compound 1·HCl (Form A) at 40° C./75% RH was examined as part of the salt screen, and was stable over 10 d.

## COc1ccc2c(ccn2C[C@@H](C)N(C)C)c1.Cl [Crystalline compound 1 HCl Form A]
[1]; listed as Compound 1·HCl Form A
  DVS isotherm type / hygroscopicity: slightly hygroscopic
[1]; listed as crystalline compound 1 HCl Form A
  DVS isotherm type / hygroscopicity: Slightly hygroscopic
[1]; desorption step, dm/dt <0.002%
  DVS mass change at 0.0% RH: 0.0239%
  DVS mass change at 5.0% RH: 0.0344%
  DVS mass change at 10.0% RH: 0.0455%
  DVS mass change at 15.0% RH: 0.0547%
  DVS mass change at 20.0% RH: 0.0648%
  DVS mass change at 25.0% RH: 0.0714%
  DVS mass change at 30.0% RH: 0.0860%
  DVS mass change at 40.0% RH: 0.0968%
  DVS mass change at 50.0% RH: 0.1367%
  DVS mass change at 60.0% RH: 0.1671%
  DVS mass change at 70.0% RH: 0.2211%
  DVS mass change at 80.0% RH: 0.2935%
[1]; during desorption, listed as crystalline compound 1 HCl Form A
  DVS desorption behaviour (hysteresis): held on to a little water at 0% RH
[1]; sorption step, dm/dt <0.002%
  DVS mass change at 0.0% RH: DVS 0 to 90 to 0% RH (dm/dt <0.002%): 0.0 (0.0011%), 5.0
  DVS mass change at 5.0% RH: 0.0078%
  DVS mass change at 10.0% RH: 0.0161%
  DVS mass change at 15.0% RH: 0.0248%
  DVS mass change at 20.0% RH: 0.0329%
  DVS mass change at 25.0% RH: 0.0379%
  DVS mass change at 30.0% RH: 0.0462%
  DVS mass change at 40.0% RH: 0.0659%
  DVS mass change at 50.0% RH: 0.0961%
  DVS mass change at 60.0% RH: 0.1388%
  DVS mass change at 70.0% RH: 0.1902%
  DVS mass change at 80.0% RH: 0.2647%
  DVS mass change at 90.0% RH: 0.4599%
[2]
  Solubility in SIF buffers: Solubility in SIF buffers: Soluble in all SIF buffers at 37 °C during 24 h.
[3]
  Stability at 40° C./75% RH: stable
[4]
  Water uptake by TG analyses: did not show any water uptake
